Experimental data: patent US20060166994A1, “Method for treating renal failure” (priority 2003, published 2006)

How the values were obtained:
[1] = 180-day mortality in heart failure patients with normal or impaired renal function (pooled levosimendan trials 3001021b and 3001030); assay type: in vivo, human; details: for 180-day mortality in levosimendan groups: heart failure patients, i.v. infusion 6 or 24 h
Experimental: In total, 701 heart failure patients from levosimendan trials 3001021b and 3001030 were included into the analysis to determine the effect of levosimendan on mortality in patients with normal or impaired renal function.
The study 3001021b compared levosimendan with dobutamine in a double-blind, parallel-group, randomised trial in 203 patients with low-output heart. Treatment with levosimendan (n=103) was started with a loading dose of 24 μg/kg infused over 10 minutes and followed by a continuous infusion of 0.1 μg/kg/min. For patients in whom the cardiac index had not increased by at least 30% compared with the baseline value at 2 hours, the dose was doubled to 0.2 μg/kg/min for levosimendan (n=69). Infusions were continued for totally 24 hours. Mortality was followed prospectively up to 31 days and retrospectively up to 180 days.
The study 3001030 evaluated the safety of levosimendan in patients with left ventricular failure after an acute myocardial infarction. The study was a placebo-controlled, double-blind, parallel-group, randomised, trial in 504 patients. Levosimendan was administered as a 10-minute loading dose followed by a continuous infusion for a total of 6 hours. The following doses were used: 6 μg/kg+0.1 μg/kg/min (n=103), 12 μg/kg+0.2 μg/kg/min (n=100), 24 μg/kg+0.2 μg/kg/min (n=99), 24 μg/kg+0.4 μg/kg/min (n=100) and similar placebo infusion (n=102). All-cause mortality was followed prospectively up to 14-days and retrospectively up to 180-days.
The patients combined from the above studies were classified according to their baseline renal function. The formula of Cockroft and Gault (Lafayette et al, 1997) was used to calculate the creatinine clearance (CLcr) values from the baseline serum creatinine) values as follows: [formula] [formula]

[2] = Elimination half-life of the active metabolite (II) in man; details: human, in vivo

SMILES	Decrease in mortality versus control groups by renal function ([1]; 180-day, comparison of normal and impaired renal function)	180-day mortality in levosimendan groups ([1]; mild renal impairment (CLcr 50-80 ml/min)) [%]	180-day mortality in levosimendan groups ([1]; normal renal function (CLcr > 80 ml/min)) [%]	half-life [2] [h]
CC1CC(=O)NN=C1c1ccc(NN=C(C#N)C#N)cc1 (single isomer, unassigned; (-)) [Levosimendan, (−)-enantiomer of [[4-(1,4,5,6-tetrahydro-4-methyl-6-oxo-3-pyridazinyl)phenyl]hydrazono]propanedinitrile]	decrease in mortality was highest in patients with impaired renal function	18	15	–
CC(=O)Nc1ccc(C2=NNC(=O)C[C@H]2C)cc1 [active metabolite (II), (R)-N-[4-(1,4,5,6-tetrahydro-4-methyl-6-oxo-3-pyridazinyl)phenyl]acetamide]	–	–	–	~72
